In patent US9339508B2, “Use of 3-methoxy-pregnenolone for the preparation of a drug for treating a traumatic brain injury” (MAPREG, priority 2003, dated 2016):

Assays:
Type in all cases: in vivo, rat
[1] = test system: Synaptophysin; assay: Western blot of synaptophysin in cortex and hippocampus after CCI; details: day 35, 20 mg/kg, first injection 2 h post-trauma, injured hippocampus
Procedure: (§1) CCI was performed with an electromagnetic impact device as described (MyNeurolab, St. Louis, Mo.; Brody et al, 2007). Anesthesized rats were subjected to a single right lateral CCI, with the following parameters impact centered 4.0 mm anterior to lambda and 4.5 mm […] of midline, within the craniotomy of the animal. The impact was set at a velocity of 4 m/s with a sustained depression of 200 ms, using a 5.0 mm tip.
Samples were analyzed by Western-blot at day 35 post-trauma (D35) to evaluate the effects of MAP4343 on: MAP2 (the target of MAP4343 and a modulator of microtubule function), the post-synaptic markers PSD95 and spinophilin, the pre-synaptic marker synaptophysin, and the axonal growth/integrity marker […].
Western blot was performed on cortex and hippocampus of TBI-injured animals receiving the first injection of MAP4343 (at 10 mg/kg or 20 mg/kg) or vehicle (sesame oil) 2 h after injury.
The expression level of various neuronal brain markers of plasticity was measured at day 35 post-trauma by western-blots in the cortex and hippocampus of left uninjured and right injured cerebral hemispheres of CCI traumatized animals receiving either vehicle (sesame oil, CCI-D0) or 3-methoxy-PREG (MAP4343) at 10 mg/kg (CCI-D1) or 20 mg/kg (CCI-D2), with first MAP4343 injection 2 h post-trauma.

[2] = test system: CCI traumatized animals; assay: Water Exploration Test (WET) after Controlled Cortical Impact (CCI); set-up: key to Entry number in CZ, Conclusion vs. CCI-D0: ↓: decrease of analyzed variable with p < 0.05; ?: stability of analyzed variable; ↑↑: increase in analyzed variable with p < 0.01; details: Day 27; 20 mg/kg (CCI-D2)
Procedure: as §1
The less anxious is a rat, the more time it will, spend “floating” (null velocity) in the central zone (see Fares-2009).
More precisely, a circular tank (180 cm diameter, 60 cm high) is filled with water maintained at 27° C. to a depth of 40 cm. The water is made opaque by adding black gouache, allowing the VideoTrack system (ViewPoint) to detect the white-coloured rat. This tank is divided into 4 identical quadrants (6,358 cm2 each) using two 180 cm long opaque plastic separators. In each quadrant, one rat is introduced with its head facing the corner between the separator and the tank's wall. It is noteworthy to emphasize that 4 rats can be tested simultaneously using the 4 quadrants. […] Thus, the distance, the number of entries, the time spent, and the velocity profile in the CZ are measured to assess anxiety-like behaviour. […]
The effect of 3-methoxy-PREG (MAP4343) on anxiety induced by trauma was analyzed using the WET test.

[3] = MAP4343 in the brain after TBI (CHI, LFP, CCI) by LC-MS/MS; details: 6 h after CHI, LFP or CCI, 4 h after single subcutaneous injection
Procedure: MAP4343 was dissolved in sesame oil and injected sub-cutaneously. Two distinct doses of MAP4343 (10 and 20 mg/kg) were tested in each model. The injection took place 2 h after trauma.
In order to establish whether TBI modifies the passage of MAP4343 into the brain, MAP4343 was measured by liquid chromatography associated to tandem mass spectrometry (LC-MS/MS) in the brain of animals sacrificed 6 h after CHI, LFP or CCI (4 h after MAP4343 single injection).
In order to establish whether TBI modifies the passage of 3-methoxy-PREG (MAP434) into the brain, MAP4343 was measured by liquid chromatography coupled to tandem mass spectrometry LC-MS/MS in the brain of animals sacrificed 6 h after CHI, LFP or CCI (4 h. after MAP4343 injection).

[4] = test system: CCI injured hippocampi; assay: Histological analysis of the hippocampus size after CCI; details: day 35, 10 mg/kg and 20 mg/kg, first injection 2 h after TBI
Procedure: as §1
Frozen sections were stained with cresyl violet. For each section analyzed, the size of the hippocampus was determined by first outlining all remaining tissue of each section taken at 500 μm intervals through the lesion (right hemisphere) or contra lateral hemisphere, thus providing a total tissue area (mm2) of the two hemispheres for each section. Then, the areas of sections were summed per hemisphere.

SMILES: CO[C@H]1CC[C@@]2(C)C(=CC[C@H]3[C@@H]4CC[C@H](C(C)=O)[C@@]4(C)CC[C@@H]32)C1 [3-methoxy-PREG, 3β-methoxy-pregna-5-ene-20-one]
- Synaptophysin expression [1]: increase in Synaptophysin expression in injured hippocampus
- Entry number in CZ, Conclusion vs. CCI-D0 [2]: ↑↑
- Time spent in CZ, Conclusion vs. CCI-D0 [2]: ↑
- concentrations of MAP4343 that reach the brain [3]: concentrations of MAP4343 of significant therapeutic interest reach the brain
- size of the injured hippocampus [4]: significantly increases the size of the injured hippocampus
